Assay results published in US5342841A, “Xanthine derivatives” (Kyowa Hakko Kogyo Co., Ltd., priority 1992, dated 1994).

How the values were obtained:
Male Wistar rats = test: Diuretic activity (oral, saline-loaded rats); format: in vivo, rat; settings: for Increase in K+ excretion / Increase in Na+ excretion / Increase in volume of Urine / Na+/K+: 6 hours; for Increase in K+ excretion / Increase in Na+ excretion / Increase in volume of Urine: relative to control; for Na+/K+: relative to control (1.00)
Protocol: Male Wistar rats weighing 150 to 300 g were fasted for 18 hours. A test compound and saline (25 ml/kg) were orally administered to the test rats and only saline was administered to the control rats. Then, urine was collected for 6 hours. The test was carried out using 3 groups of animals per test compound, each group consisting of 3 animals. The volume of the urine was measured by using a measuring cylinder and electrolytes (Na^+ and K^+) in the urine were assayed with a flame photometer (Model […] manufactured by Hitachi Ltd.). The parameters in Table 3 are all expressed by relative value to the control.

[1] = test system: glycerol-induced renal insufficiency in male Wistar rats; test: Renal protecting activity (glycerol-induced renal insufficiency model), serum creatinine and urea nitrogen; format: in vivo, rat; settings: i.p.; for Creatinine content in serum, test compound administered / Urea nitrogen content in serum, test compound administered: 24 hours after glycerol; for increases in creatinine content and urea nitrogen content of the serum (in words): Compound 1 at 0.1 mg/kg (p<0.001)
Protocol: Renal insufficiency is the condition that the homeostasis of body fluid is unable to be maintained by disorder of renal function. It is known that subcutaneous or intramuscular administration of glycerol to rat induces acute renal insufficiency characterized by renal tubular disturbance [Can. J. Physiol.
(§1) Male Wistar rats were fisted from both food and water for 18 hours. A test compound or saline (control) was intraperitoneally administered to the rats. After 30 minutes, the rats were anesthesized with ether and the back skin was picked up and 0.8 ml/100 g of 50% glycerol was subcutaneously administered. Twenty four hours after the glycerol injection, the rats were anesthesized with ether and 5 ml of the blood was collected from the descending aorta. After being allowed to stand for 30 minutes or longer, the blood sample was centrifuged at 3000 rpm for 10 minutes to obtain the serum. Creatinine in the serum sample was determined using autoanalyzer (AU510, Olympus Optical Co., Ltd.) or clinical analysis kit of creatinine (Creatinine Test Wako; by Wako Pure Chemical Ind., Japan). Urea nitrogen in the serum was determined using autoanalyzer (AU510; made by Olympus Optical Co., Ltd.) or clinical analysis kit of urea nitrogen (Urea Nitrogen Test Wako; by Wako Pure Chemical Ind., Japan).
Test of the significance between the control group and the test compound-administered group was performed by the Student's t-test (n=8 to 10).

[2] = test system: left kidneys of male Wistar rats with glycerol-induced renal insufficiency; test: Pathological examination of removed kidneys (glycerol-induced renal insufficiency model); format: in vivo, rat
Protocol: as §1
Further, the left kidneys were taken out from the animals of the test compound-treated groups and the control groups to prepare pathological samples.

Adenosine A2 receptor = target: T1, Adenosine A2 receptor (Rattus norvegicus, UniProt P30543); test: Adenosine A2 receptor binding test (3H-NECA); settings: for Ki: 3H-NECA, CPA 50 nM, rat corpus striatum; for inhibition at 10 µM / inhibition at 100 µM: read-out: A2 Receptor Inhibition (%)
T1 construct: using rat corpus striatum to prepare the final precipitate; from tissue; host or cells: rat corpus striatum membranes
Protocol: The similar procedure as in 1) above was repeated using rat corpus striatum to prepare the final precipitate. The precipitate was suspended in 50 mM Tris HCl buffer containing 10 mM magnesium chloride and 0.02 unit/mg tissue of adenosine deaminase (manufactured by Sigma Co.) to give a tissue concentration of 5 mg (wet weight)/ml.
To 1 ml of the thus prepared tissue suspension were added 50 μl of a mixture of N-ethylcarboxamidoadenosine labeled with tritium [^3 H-NECA, 26 Ci/mmol, manufactured by Amersham Co.] […] (final concentration: 50 nM), and 50 μl of a test compound. The mixture was allowed to stand at 25° C. for 120 minutes and then treated in the same manner as in 1) above to determine the radioactivity.
The inhibition rate of the test compound against the binding of A2 receptor (^3 H-NECA binding) was calculated by the following equation: [formula]
2. "T" means the radioactivity of ^3 H-NECA bound in the absence of a test compound.
3. "N" means the radioactivity of ^3 H-NECA bound in the presence of 100 μM CPA.
The Ki value shown in the table was calculated by the following equation: [formula]
L: Concentration of ^3 H-NECA
Kd: Dissociation constant of ^3 H-NECA
Kc: Inhibition constant of CPA

Adenosine A1 receptor = target: T2, Adenosine A1 receptor (Cavia porcellus, UniProt P47745); test: Adenosine A1 receptor binding (3H-CHA); settings: guinea pig cerebrum; for Ki: 3H-CHA, Cheng-Prusoff's equation; for inhibition at 100 µM: 10^-4 M test compound; for inhibition at 100 µM / inhibition at 10 µM: 3H-CHA 1.1 nM; for inhibition at 10 µM: 10^-5 M test compound
T2 construct: from tissue; host or cells: guinea pig cerebrum membranes
T2 sequence (P47745 1-326): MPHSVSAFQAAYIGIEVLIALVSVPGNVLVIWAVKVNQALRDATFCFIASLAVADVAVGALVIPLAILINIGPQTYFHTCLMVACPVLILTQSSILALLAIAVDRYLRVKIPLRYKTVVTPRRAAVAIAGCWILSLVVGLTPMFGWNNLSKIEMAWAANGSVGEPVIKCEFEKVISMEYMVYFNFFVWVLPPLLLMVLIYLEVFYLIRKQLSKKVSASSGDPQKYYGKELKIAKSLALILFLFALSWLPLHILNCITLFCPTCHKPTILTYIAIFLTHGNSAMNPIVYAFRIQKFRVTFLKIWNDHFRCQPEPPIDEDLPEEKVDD
Protocol: This test was conducted according to the method of Bruns et al. [Proc. Natl. Acad. Sci., 77, 5547 (1980)] with slight modification.
Cerebrum of a guinea pig was suspended in ice cooled 50 mM Tris hydroxymethyl aminomethane hydrochloride (Tris HCl) buffer (pH 7.7) by using Polytron homogenizer (manufactured by Kinematicas Co.). The suspension was centrifuged (50,000×g, 10 minutes), and the precipitate was suspended again in the same amount of 50 mM Tris HCl buffer. The suspension was centrifuged under the same conditions, and the precipitate obtained was suspended once again in 50 mM Tris HCl buffer to give a tissue concentration of 100 mg (wet weight)/ml. The tissue suspension was incubated at 37° C. for 30 minutes in the presence of 0.02 unit/mg tissue of adenosine deaminase (manufactured by Sigma Co.). The tissue suspension was then centrifuged (50,000×g, 10 minutes), and 50 mM Tris HCl buffer was added to the precipitate to adjust the concentration of tissue to 10 mg (wet weight)/ml.
To 1 ml of the thus prepared tissue suspension were added 50 μl of cyclohexyladenosine labeled with tritium [^3 H-CHA, 27 Ci/mmol, manufactured by New England Nuclear Co.] (final concentration: 1.1 nM) and 50 μl of a test compound. The mixture was allowed to stand at 25° C. for 90 minutes and then rapidly filtered by suction through a glass fiber filter (GF/C manufactured by Whatman Co.). The filter was immediately washed three times with 5 ml each of ice cold 50 mM Tris HCl buffer, and transferred to a vial, and a scintillator (EX-H by Wako Pure Chemical Industries, Ltd.) was added thereto. The radioactivity on the filter was determined with a scintillation counter (manufactured by Packard Instrument Co.).
The inhibition rate of the test compound against the binding of A1 receptor (^3 H-CHA binding) was calculated by the following equation: [formula]
2. "T" means the radioactivity of ^3 H-CHA bound in the absence of a test compound.
3. "N" means the radioactivity of ^3 H-CHA bound in the presence of 10 μM N^6 -(L-2-phenylisopropyl)adenosine (manufactured by Sigma Co.).
The inhibition constant (Ki value) shown in the table was calculated by the Cheng-Prusoff's equation.

[3] = 1 mg/kg, control 4.53 ± 0.19, *** P < 0.001, ** P < 0.01
[4] = 1 mg/kg, control 193.6 ± 6.4, *** P < 0.001, ** P < 0.01

T1 sequence (P30543 whole entry): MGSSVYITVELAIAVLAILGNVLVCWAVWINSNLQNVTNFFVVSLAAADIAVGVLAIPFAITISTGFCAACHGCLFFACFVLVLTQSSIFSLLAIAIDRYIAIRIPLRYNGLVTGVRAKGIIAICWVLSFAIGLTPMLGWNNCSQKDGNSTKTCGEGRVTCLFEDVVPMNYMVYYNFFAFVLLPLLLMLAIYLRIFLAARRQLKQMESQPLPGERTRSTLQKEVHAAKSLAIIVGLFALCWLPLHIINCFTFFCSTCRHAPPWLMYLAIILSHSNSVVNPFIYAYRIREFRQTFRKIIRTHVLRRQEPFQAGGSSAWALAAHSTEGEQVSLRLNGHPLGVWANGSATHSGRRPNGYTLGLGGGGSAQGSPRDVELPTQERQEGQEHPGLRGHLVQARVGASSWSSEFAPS

## Cn1c(=O)c2[nH]cnc2n(C)c1=O [Aminophylline, reference compound]
Male Wistar rats; 25 mg/kg
  Increase in K+ excretion: 17%
  Increase in Na+ excretion: 89%
  Increase in volume of Urine: 34%
  Na+/K+: 1.62
[1]; 10 mg/kg, control 5.43 ± 0.11, no significance mark
  Creatinine content in serum, test compound administered: 5.32 ± 0.19 mg/dL
[1]; 10 mg/kg, control 182.5 ± 3.4, no significance mark
  Urea nitrogen content in serum, test compound administered: 174.0 ± 10.4 mg/dL
[1]; conclusion from Table 4
  increases in creatinine content and urea nitrogen content of the serum (in words): weak effect

## O=c1c2[nH]c(C34CC5CC(CC3C5)C4)nc2n(CC2CC2)c(=O)n1CC1CC1 [Compound 1, 1,3-Bis(cyclopropylmethyl)-8-(3-noradamantyl)xanthine]
[2]
  state of kidneys (pathological examination): significantly improved
Male Wistar rats; 0.1 mg/kg
  Increase in K+ excretion: 9%
  Increase in Na+ excretion: 146%
  Increase in volume of Urine: 184%
  Na+/K+: 2.25
Male Wistar rats; conclusion in words from Table 3
  Na+ diuretic action: potent
Adenosine A2 receptor
  Ki: > 10000 nM
  inhibition at 10 µM: 49%
  inhibition at 100 µM: 70%
[1]; 0.1 mg/kg, control 4.53 ± 0.19, *** P < 0.001
  Creatinine content in serum, test compound administered: 2.52 ± 0.24 mg/dL
[1]; 0.1 mg/kg, control 4.86 ± 0.12, *** P < 0.001
  Creatinine content in serum, test compound administered: 1.97 ± 0.21 mg/dL
[1]; 0.1 mg/kg, control 152.6 ± 4.1, *** P < 0.001
  Urea nitrogen content in serum, test compound administered: 61.3 ± 8.7 mg/dL
[1]; 0.1 mg/kg, control 193.6 ± 6.4, *** P < 0.001
  Urea nitrogen content in serum, test compound administered: 109.4 ± 12.8 mg/dL
[1]; [3]
  Creatinine content in serum, test compound administered: 2.23 ± 0.30 mg/dL
[1]; [4]
  Urea nitrogen content in serum, test compound administered: 97.2 ± 13.6 mg/dL
[1]; conclusion from Table 4
  increases in creatinine content and urea nitrogen content of the serum (in words): significantly suppressed
Adenosine A1 receptor
  Ki: 1.9 nM
  inhibition at 100 µM: 101%
  inhibition at 10 µM: 99%

## O=c1c2[nH]c(C(C3CC3)C3CC3)nc2n(CC2CC2)c(=O)n1CC1CC1 [Compound 2, 1,3-Bis(cyclopropylmethyl)-8-dicyclopropylmethylxanthine]
Male Wistar rats; 1.6 mg/kg
  Increase in K+ excretion: 4%
  Increase in Na+ excretion: 49%
  Increase in volume of Urine: 43%
  Na+/K+: 1.44
Adenosine A2 receptor
  Ki: 210 nM
  inhibition at 10 µM: 93%
  inhibition at 100 µM: 100%
Adenosine A1 receptor
  Ki: 2.7 nM
  inhibition at 100 µM: 101%
  inhibition at 10 µM: 100%

## O=c1c2[nH]c(C34CC5CC(CC3C5)C4)nc2n(C2CC2)c(=O)n1C1CC1 [Compound 3, 1,3-Dicyclopropyl-8-(3-noradamantyl)xanthine]
Male Wistar rats; 0.1 mg/kg
  Increase in K+ excretion: 0%
  Increase in Na+ excretion: 52%
  Increase in volume of Urine: 48%
  Na+/K+: 1.52
Male Wistar rats; 1.6 mg/kg
  Increase in K+ excretion: 8%
  Increase in Na+ excretion: 118%
  Increase in volume of Urine: 93%
  Na+/K+: 2.02
Adenosine A2 receptor
  Ki: 1300 nM
  inhibition at 10 µM: 78%
  inhibition at 100 µM: 103%
Adenosine A1 receptor
  Ki: 38 nM
  inhibition at 100 µM: 98%
  inhibition at 10 µM: 99%

## O=c1c2[nH]c(C(C3CC3)C3CC3)nc2n(C2CC2)c(=O)n1C1CC1 [Compound 4, 1,3-Dicyclopropyl-8-dicyclopropylmethylxanthine]
Male Wistar rats; 1.6 mg/kg
  Increase in K+ excretion: 18%
  Increase in Na+ excretion: 54%
  Increase in volume of Urine: 54%
  Na+/K+: 1.31
Adenosine A2 receptor
  Ki: 2400 nM
  inhibition at 10 µM: 104%
  inhibition at 100 µM: 108%
[1]; [3]
  Creatinine content in serum, test compound administered: 2.55 ± 0.43 mg/dL
[1]; [4]
  Urea nitrogen content in serum, test compound administered: 108.5 ± 16.8 mg/dL
Adenosine A1 receptor
  Ki: 42 nM
  inhibition at 100 µM: 99%
  inhibition at 10 µM: 99%

## NS(=O)(=O)c1cc(C(=O)O)c(NCc2ccco2)cc1Cl [Furosemide, reference compound]
Male Wistar rats; 25 mg/kg
  Increase in volume of Urine: 75%
  Na+/K+: 1.07
[1]; 10 mg/kg, control 3.22 ± 0.35, no significance mark
  Creatinine content in serum, test compound administered: 4.17 ± 0.41 mg/dL
[1]; 10 mg/kg, control 110.7 ± 9.4, * P < 0.05
  Urea nitrogen content in serum, test compound administered: 150.3 ± 13.7 mg/dL
[1]; conclusion from Table 4
  serum creatinine (in words): tendency to increase the serum creatinine
